Test results as given in ChEMBL document CHEMBL5096185, “Structure-Guided Development of Small-Molecule PRC2 Inhibitors Targeting EZH2-EED Interaction” (J Med Chem, 2021).
The source made the active and inactive calls. The calls are words filed in the database; no cut-off is given here.

Assays:
[1] = Inhibition of FITC-labeled EZH2 (40 to 63 residues) (unknown origin)-recombinant N-terminal 6His-SUMO tagged human EED (81 to 441 residues) expressed in Escherichia coli BL21 (DE3) cells protein-protein interaction incubated for 2 hrs by fluorescence polarization competition assay
Polycomb protein EED [2] = target: T1, Polycomb protein EED (Homo sapiens, UniProt O75530); experiment: Binding affinity to recombinant N-terminal 6His-SUMO tagged human EED (81 to 441 residues) expressed in Escherichia coli BL21 (DE3) cells assessed as dissociation constant measured after 240 sec by SPR-based binding assay
Target sequence in this assay (O75530 whole entry, the tested form may be a part): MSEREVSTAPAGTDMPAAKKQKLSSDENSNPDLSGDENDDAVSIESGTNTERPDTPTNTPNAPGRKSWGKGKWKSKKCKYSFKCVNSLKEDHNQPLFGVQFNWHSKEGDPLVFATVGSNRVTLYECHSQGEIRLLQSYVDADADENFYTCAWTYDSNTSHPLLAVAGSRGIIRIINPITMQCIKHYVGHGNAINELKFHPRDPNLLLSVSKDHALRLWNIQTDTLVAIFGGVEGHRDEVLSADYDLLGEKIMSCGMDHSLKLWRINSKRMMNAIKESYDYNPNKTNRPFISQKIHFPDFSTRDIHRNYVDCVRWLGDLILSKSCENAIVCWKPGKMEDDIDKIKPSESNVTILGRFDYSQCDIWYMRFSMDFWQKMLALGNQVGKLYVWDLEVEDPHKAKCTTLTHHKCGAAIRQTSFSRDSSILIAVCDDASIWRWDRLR

Homo sapiens = organism: Homo sapiens; experiment: Binding affinity to EZH2 (39 to 68 residues) (unknown origin)/recombinant N-terminal 6His-SUMO tagged human EED (81 to 441 residues) expressed in Escherichia coli BL21 (DE3) cells assessed as T1rho signal recovery at 50 to 100 uM by NMR-based binding assay; settings: dose 50-100 µM
Pfeiffer [3] = experiment: Induction of cell cycle arrest in human Pfeiffer cells assessed as decrease of cells in S phase at 5 uM incubated for 2 days by PI/RNase staining based analysis (reference value: 32.8 %); format: functional; set-up: scale not given: the % may be the effect or the level left; settings: time 2 day
SUD4 [4] = experiment: Induction of cell cycle arrest in human SU-DHL-4 cells assessed as accumulation of cells in G0/G1 phase at 5 uM incubated for 3 days by PI/RNase staining based analysis (reference value: 62.2 %); format: functional; settings: time 3 day
Pfeiffer [5] = experiment: Inhibition of PRC2 in human Pfeiffer cells assessed as reduction in EED protein level measured after 72 hrs by Western blot analysis; format: cell-based; settings: dose 0.6-10 µM, DDE = dose-dependent effect
Pfeiffer [6] = experiment: Inhibition of PRC2 in human Pfeiffer cells assessed as reduction in EZH2 protein level measured after 72 hrs by Western blot analysis; format: cell-based; settings: dose 0.6-10 µM, DDE = dose-dependent effect
Pfeiffer [7] = experiment: Antiproliferative activity against human Pfeiffer cells assessed as inhibition of cell growth incubated for 72 hrs by CellTiter-Glo assay; format: functional, cell-based
Pfeiffer [8] = experiment: Induction of cell cycle arrest in human Pfeiffer cells assessed as decrease of cells in G2/M phase at 5 uM incubated for 2 days by PI/RNase staining based analysis (reference value: 14.9 %); format: functional; set-up: scale not given: the % may be the effect or the level left; settings: time 2 day
DB = experiment: Antiproliferative activity against human DB cells assessed as inhibition of cell growth incubated for 72 hrs by CellTiter-Glo assay; format: functional, cell-based
SUD4 [9] = experiment: Induction of cell cycle arrest in human SU-DHL-4 cells assessed as decrease of cells in G2/M phase at 5 uM incubated for 3 days by PI/RNase staining based analysis (reference value: 29.2 %); format: functional; set-up: scale not given: the % may be the effect or the level left; settings: time 3 day
Pfeiffer [10] = experiment: Inhibition of PRC2 in human Pfeiffer cells assessed as reduction in H3K27me3 level measured after 72 hrs by Western blot analysis; format: cell-based; settings: dose 0.6-10 µM, DDE = dose-dependent effect
SUD4 [11] = experiment: Induction of cell cycle arrest in human SU-DHL-4 cells assessed as decrease of cells in G2/M phase at 5 uM incubated for 3 days by PI/RNase staining based analysis (reference value: 8.6 %); format: functional; set-up: scale not given: the % may be the effect or the level left; settings: time 3 day
Polycomb protein EED [12] = target: T1, Polycomb protein EED; experiment: Binding affinity to recombinant N-terminal 6His-SUMO tagged human EED (81 to 441 residues) expressed in Escherichia coli BL21 (DE3) cells assessed as binding constant (Kon) measured after 120 sec by SPR-based binding assay
Target sequence in this assay (O75530 2-441 limits assumed): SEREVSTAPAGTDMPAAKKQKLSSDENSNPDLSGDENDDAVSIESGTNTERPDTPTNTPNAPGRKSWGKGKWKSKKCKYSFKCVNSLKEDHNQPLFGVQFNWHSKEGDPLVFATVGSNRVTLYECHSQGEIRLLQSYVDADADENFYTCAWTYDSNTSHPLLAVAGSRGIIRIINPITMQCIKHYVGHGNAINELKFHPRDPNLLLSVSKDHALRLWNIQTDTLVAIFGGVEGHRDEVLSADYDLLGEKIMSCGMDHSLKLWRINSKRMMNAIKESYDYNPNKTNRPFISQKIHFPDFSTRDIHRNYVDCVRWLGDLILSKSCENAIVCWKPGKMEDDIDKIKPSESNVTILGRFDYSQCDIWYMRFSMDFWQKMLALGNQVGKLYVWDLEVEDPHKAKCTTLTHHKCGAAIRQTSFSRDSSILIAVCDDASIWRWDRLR

SUD4 [13] = experiment: Antiproliferative activity against human SU-DHL-4 cells assessed as inhibition of cell growth incubated for 72 hrs by CellTiter-Glo assay; format: functional, cell-based; settings: SU-DHL-4, 72 h
Polycomb protein EED [14] = target: T1, Polycomb protein EED; experiment: Binding affinity to recombinant N-terminal 6His-SUMO tagged human EED (81 to 441 residues) expressed in Escherichia coli BL21 (DE3) cells assessed as binding constant (Koff) measured after 120 sec by SPR-based binding assay
Target sequence in this assay (O75530 2-441 limits assumed): as above

Pfeiffer [15] = experiment: Induction of cell cycle arrest in human Pfeiffer cells assessed as accumulation of cells in G0/G1 phase at 5 uM incubated for 2 days by PI/RNase staining based analysis (reference value: 52.3%); format: functional; settings: time 2 day
KARPAS-422 = experiment: Antiproliferative activity against human KARPAS-422 cells assessed as inhibition of cell growth incubated for 72 hrs by CellTiter-Glo assay; format: functional, cell-based; settings: KARPAS-422, 72 h
Pfeiffer [16] = experiment: Inhibition of PRC2 in human Pfeiffer cells assessed as reduction in SUZ12 protein level measured after 72 hrs by Western blot analysis; format: cell-based; settings: dose 0.6-10 µM, DDE = dose-dependent effect

| IC50 [1] [µM] | SMILES | further results |
| --- | --- | --- |
| 33.8 | COc1ccc(CNc2ccc(Nc3nc4ccccc4n3Cc3ccc(F)cc3)cc2)cc1 | – |
| 87.6 | Cc1ccc(CCN2CCC(Nc3nc4ccccc4n3Cc3ccc(F)cc3)CC2)cc1 | – |
| 190 | Oc1ccc(CCN2CCC(Nc3nc4ccccc4n3Cc3ccc(F)cc3)CC2)cc1 [DESMETHEYLASTEMIZOLE] | – |
| 56.5 | COc1ccc(CCN2CCC(Nc3nc4ccccc4n3Cc3ccc(F)c(F)c3)CC2)cc1 | – |
| 66.3 | COc1ccc(CCN2CCC(Nc3nc4ccccc4n3Cc3ccc([N+](=O)[O-])cc3)CC2)cc1 | – |
| 78.7 | COc1ccc(CN[C@H]2CC[C@H](Nc3nc4ccccc4n3Cc3ccc(F)cc3)CC2)cc1 | – |
| 61.6 | COc1ccc(CCN2CCC(Nc3nc4ccccc4n3Cc3ccc(F)c([N+](=O)[O-])c3)CC2)cc1 | – |
| 32.5 | COc1ccc(CNc2ccc(Nc3nc4ccccc4n3Cc3ccc(F)cc3)cn2)cc1 | – |
| 63.6 | COc1ccc(CCN2CCC(Nc3nc4cc(N)ccc4n3Cc3ccc(F)cc3)CC2)cc1 | – |
| 73.8 | COc1ccc(CCN2CCC(Nc3nc4cccc(N)c4n3Cc3ccc(F)cc3)CC2)cc1 | – |
| 80.1 | COc1ccc(CCN2CCC(Nc3nc4ccccc4n3Cc3ccc(F)cc3[N+](=O)[O-])CC2)cc1 | – |
| 11.6 | COc1ccc(CCNCCNc2nc3ccccc3n2Cc2ccc(F)cc2)cc1 | – |
| 341 | O=[N+]([O-])c1cccc(CCN2CCC(Nc3nc4ccccc4n3Cc3ccc(F)cc3)CC2)c1 | – |
| 74.2 | COc1ccc(CCN2CCC(Nc3nc4ccccc4n3Cc3ccc(F)cc3)CC2)cc1 [ASTEMIZOLE] | – |
| 175 | Oc1ccccc1CCN1CCC(Nc2nc3ccccc3n2Cc2ccc(F)cc2)CC1 | – |
| > 500 | COc1ccc(CN[C@H]2CC[C@@H](Nc3nc4ccccc4n3Cc3ccc(F)cc3)CC2)cc1 | – |
| 21.5 | COc1ccc(CCN2CC(Nc3nc4ccccc4n3Cc3ccc(F)cc3)C2)cc1 | – |
| 60.8 | COc1ccc(CCN2CCC(Nc3nc4ccccc4n3Cc3ccc(C(F)(F)F)cc3)CC2)cc1 | – |
| 48.6 | COc1ccc(CCN2CCC(Nc3nc4c(N)cccc4n3Cc3ccc(F)cc3)CC2)cc1 | – |
| 221 | COc1ccc(CCN2CCC(Nc3nc4ccccc4n3Cc3ccc(N)cc3)CC2)cc1 | – |
| 131 | COc1ccc(CCN2CCC(Nc3nc4ccccc4n3Cc3ccccc3)CC2)cc1 | – |
| 464 | COc1ccc(CCNCCCNc2nc3ccccc3n2Cc2ccc(F)cc2)cc1 | – |
| – | COc1ccc(CCN2CCC(Nc3nc4ccccc4n3Cc3ccc(F)cc3)C2)cc1 (centres undefined) | Kd (Polycomb protein EED [2]): 4.56 µM; Activity (Homo sapiens): Active; Activity (Pfeiffer [3]): 17.6%; Activity (SUD4 [4]): 84%; inhibition (Pfeiffer [5]): Dde; inhibition (Pfeiffer [6]): Dde; IC50 (Pfeiffer [7]): 3.77 µM; Activity (Pfeiffer [8]): 6.2%; IC50 (DB): 9.62 µM; Activity (SUD4 [9]): 16%; inhibition (Pfeiffer [10]): Dde; Activity (SUD4 [11]): 0%; K (Polycomb protein EED [12]): 4500 M⁻¹ s⁻¹; IC50 (SUD4 [13]): 5.87 µM; K (Polycomb protein EED [14]): 0.0205 s⁻¹; Activity (Pfeiffer [15]): 76.2%; IC50 (KARPAS-422): 5.97 µM; inhibition (Pfeiffer [16]): Dde |
| 4.56 | COc1ccc(CCN2CC[C@H](Nc3nc4ccccc4n3Cc3ccc(F)cc3)C2)cc1 | – |
| 153 | COc1ccc(CCN2CCC(Nc3nc4ccccc4n3Cc3ccc(C)cc3)CC2)cc1 | – |
| 64.7 | COc1ccc(CCN2CCC(Nc3nc4ccc(N)cc4n3Cc3ccc(F)cc3)CC2)cc1 | – |
| 61.5 | Oc1cccc(CCN2CCC(Nc3nc4ccccc4n3Cc3ccc(F)cc3)CC2)c1 | – |
